Experimental data: patent US7488730B2, “N-(1,2,3,4-tetrahydronaphthalen-1-yl)-4-phenyl-1-piperazinealkylamide derivatives, and therapeutic use thereof as 5-HT7 receptor ligands” (Universita Degli Studi Di Bari, priority 2005, dated 2009)
Entries after “also recorded” stand apart in the source; their conditions may differ. Where a name gives a salt, the structure may show the parent alone. No end group written: not given here.

What was measured:
[1] = tested on: hamsters; assay: Circadian phase shift in hamsters after injection; type: in vivo
Source text: This provides evidence that no additional receptor subtype, such as the 5-HT1A receptor or the 5-HT5A receptor, is necessary for this effect.

[2] = biological target: T1, rat cloned 5-HT7 receptor (Rattus norvegicus, UniProt P32305); assay: Radioligand binding assay ([3H]-LSD) at rat cloned 5-HT7Rs; settings: for Ki: [3H]-LSD, rat recombinant 5-HT7R expressed in HEK-293 cells
T1 construct: purchased PerkinElmer-NEN; host or cells: HEK-293
T1 sequence (P32305 whole entry): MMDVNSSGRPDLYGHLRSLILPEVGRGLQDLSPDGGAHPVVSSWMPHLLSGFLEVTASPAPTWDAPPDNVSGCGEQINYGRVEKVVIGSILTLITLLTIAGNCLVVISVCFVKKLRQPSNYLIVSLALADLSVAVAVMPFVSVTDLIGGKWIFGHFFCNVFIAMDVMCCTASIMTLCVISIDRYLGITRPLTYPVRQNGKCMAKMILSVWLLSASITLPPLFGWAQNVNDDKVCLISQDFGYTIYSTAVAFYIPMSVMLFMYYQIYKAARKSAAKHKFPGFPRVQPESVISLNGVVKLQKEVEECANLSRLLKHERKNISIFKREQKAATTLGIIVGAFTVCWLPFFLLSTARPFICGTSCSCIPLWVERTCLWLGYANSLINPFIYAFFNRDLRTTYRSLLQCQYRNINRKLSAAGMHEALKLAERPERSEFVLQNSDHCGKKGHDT
Protocol: Rat recombinant serotonin 5-HT7R expressed in HEK-293 cells were purchased from PerkinElmer-NEN (Betsville, Md., USA).
Radioligand Binding Assay at Rat Cloned 5-HT7Rs. Binding of [^3H]-LSD at rat cloned 5-HT7 receptor was performed according to a known method. In 1 mL of incubation buffer (50 mM Tris, 10 mM MgCl2 and 0.5 mM EDTA, pH 7.4) were suspended 30 μg of membranes, 2.5 nM [^3H]-LSD, the drugs or reference compound (six to nine concentrations). The samples were incubated for 60 min at 37° C. The incubation was stopped by rapid filtration on GF/A glass fiber filters (pre-soaked in 0.5% polyethylenimine for 30 min). The filters were washed with 3 ? 3 mL of ice-cold buffer (50 mM Tris, pH 7.4). Nonspecific binding was determined in the presence of 10 μM 5-CT. Approximately 90% of specific binding was determined under these conditions.

[3] = biological target: T2, 5-HT2A receptors (Rattus norvegicus, UniProt P14842); assay: Radioligand binding assay ([3H]-ketanserin) at rat cortex membranes 5-HT2A receptors; settings: for Ki: read-out: Ki, nM 5-HT2A, [3H]-ketanserin, rat cortex membranes
T2 sequence (P14842 whole entry): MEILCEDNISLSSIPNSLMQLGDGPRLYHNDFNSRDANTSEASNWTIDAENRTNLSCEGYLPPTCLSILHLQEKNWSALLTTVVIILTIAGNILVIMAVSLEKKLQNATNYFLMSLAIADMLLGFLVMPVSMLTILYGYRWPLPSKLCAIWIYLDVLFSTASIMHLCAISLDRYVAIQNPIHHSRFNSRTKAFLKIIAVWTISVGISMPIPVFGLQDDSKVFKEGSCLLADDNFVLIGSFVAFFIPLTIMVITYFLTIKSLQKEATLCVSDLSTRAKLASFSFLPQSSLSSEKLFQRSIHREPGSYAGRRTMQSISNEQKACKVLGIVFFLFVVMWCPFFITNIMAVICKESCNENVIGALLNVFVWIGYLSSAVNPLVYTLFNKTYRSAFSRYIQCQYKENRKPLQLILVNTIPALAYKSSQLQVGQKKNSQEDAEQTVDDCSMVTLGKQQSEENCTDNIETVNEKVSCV
Protocol: (§1) Radioligand Binding Assay at Rat Cortex Membranes 5-HT2A Receptors. […] Rats were killed by decapitation, the brain was quickly removed, and the cortex was dissected. […] The homogenate was centrifuged at 2000 g for 10 min at 4° C. The supernatant was saved, and the pellet was resuspended in 25 mL of buffer. The surnatantes were collected and diluted 1:10 w/w with 10 mM Tris pH 7.4. The homogenate was centrifugated at 35000 g for 15 min at 4° C. The supernatant was discarded, and the final pellet was stored at −80° C. until used. […] For competitive inhibition experiments various concentrations of drugs studied were incubated. […] Samples were incubated at 37° C. for 15 min and then filtered on Whatman GF/B glass microfiber filters.
(§2) Statistical Analysis. […] PRISM® program. The value for the inhibition constant, Ki, was calculated by using the Cheng-Prusoff equation.

[4] = biological target: T3, 5-HT1A receptors (Rattus norvegicus, UniProt P19327); settings: for Ki: read-out: Ki, nM 5-HT1A, [3H]-8-OH-DPAT, rat hippocampal membranes
T3 sequence (P19327 1-422): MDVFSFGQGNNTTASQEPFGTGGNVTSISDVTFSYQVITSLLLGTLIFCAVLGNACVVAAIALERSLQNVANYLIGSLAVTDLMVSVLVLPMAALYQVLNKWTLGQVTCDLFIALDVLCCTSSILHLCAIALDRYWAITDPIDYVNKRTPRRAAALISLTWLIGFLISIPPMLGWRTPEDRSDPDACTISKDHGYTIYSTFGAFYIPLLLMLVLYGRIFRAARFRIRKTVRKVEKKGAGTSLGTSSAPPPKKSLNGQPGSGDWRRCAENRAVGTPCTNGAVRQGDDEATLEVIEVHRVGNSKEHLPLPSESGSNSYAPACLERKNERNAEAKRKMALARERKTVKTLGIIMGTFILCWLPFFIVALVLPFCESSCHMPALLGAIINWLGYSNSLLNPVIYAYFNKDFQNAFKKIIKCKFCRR
Protocol: Radioligand Binding Assay at Rat Hippocampal Membranes 5-HT1A Receptors. Binding experiments were performed according to a known method. Rats were killed by decapitation, the brain was quickly removed, and the hippocampus was dissected. […] The homogenate was centrifuged at 48000 g for 15 min at 4° C. The supernatant was discarded, and the pellet was resuspended in 25 mL of buffer, then preincubated for 10 min at 37° C. The homogenate was centrifuged at 48000 g for 15 min at 4° C. The supernatant was discarded, and the final pellet was stored at −80° C. until used. […] For competitive inhibition experiments various concentrations of drugs studied were incubated. […] Samples were incubated at 37° C. for 20 min and then filtered on Whatman GF/B glass microfiber filters.
Statistical Analysis. […] The value for the inhibition constant, Ki, was calculated by using the Cheng-Prusoff equation.

[5] = biological target: 5-HT7 receptor (Cavia porcellus, UniProt P50407); assay: Isolated guinea-pig ileum assay: relaxation of substance P-induced contraction; settings: for PA2 (vs SB-269970): in the presence of antagonist SB-269970 (0.1 μM-3 μM); for 5-HT7 intrinsic activity (in words): isolated guinea-pig ileum; for Emax: read-out: Maximal Effect %; for Schild plot: vs SB-269970, p value in parentheses
Sequence of 5-HT7 receptor (P50407 whole entry): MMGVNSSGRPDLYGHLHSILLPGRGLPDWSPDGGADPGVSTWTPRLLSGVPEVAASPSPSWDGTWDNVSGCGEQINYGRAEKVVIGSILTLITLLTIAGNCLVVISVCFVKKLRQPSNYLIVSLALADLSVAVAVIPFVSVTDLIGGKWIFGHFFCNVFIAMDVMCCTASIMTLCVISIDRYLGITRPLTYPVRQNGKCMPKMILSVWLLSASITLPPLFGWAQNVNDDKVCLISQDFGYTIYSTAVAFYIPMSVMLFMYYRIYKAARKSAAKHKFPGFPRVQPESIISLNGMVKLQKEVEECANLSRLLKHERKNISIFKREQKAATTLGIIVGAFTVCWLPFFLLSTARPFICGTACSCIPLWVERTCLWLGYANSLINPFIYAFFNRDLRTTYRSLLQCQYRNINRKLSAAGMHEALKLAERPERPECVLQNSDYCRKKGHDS
Protocol: Isolated Guinea-Pig Ileum Assay. Guinea-pigs were anesthetized and then decapitated and the proximal ileum removed. […] Changes in tension of the tissue were recorded by Fort 10 Original WPI isometric transducer (2Biological Instruments, Italy) connected to a PowerLab/400 workstation. […] Tested compounds were added 3 min before substance P addition.
The isolated guinea pig ileum was equilibrated for 75 min with antagonist before constructing concentration-response curves of tested compounds.
Tissue responses were recorded as gram changes in isometric tension and expressed as percentage of reduction in the height of the contraction.
Agonist potencies, expressed as EC50, were obtained from non-linear iterative curve fitting by [sequence] PRISM®.

[6] = biological target: T2, 5-HT2A receptors
Protocol: as §1, §2

[7] = tested on: isolated guinea-pig ileum; assay: Substance P contraction of isolated guinea-pig ileum (concentration-response); settings: 100 nM
Source text: Isolated Guinea-Pig Ileum Assay.

Molecule	melting point	Ki [2]	Ki [3]	Ki [4]	other results
CC1CCN(CC[C@H]2CCCN2S(=O)(=O)c2cccc(O)c2)CC1 [SB-26770-A, reference compound]	–	–	–	–	effect on phase shifts caused by compound 44 ([1]; microinjection into the dorsal raphe before compound 44, relative to vehicle pretreatment): significantly block phase shifts
COc1ccc(OC)c(N2CCN(CCCCCC(=O)NC3CCCc4ccccc43)CC2)c1 (stereo not drawn) (as salt: HCl) (hydrate or solvate) [Compound 36]	124 to 126 °C	–	–	–	–
N#Cc1ccccc1N1CCN(CCCCCC(=O)NC2CCCc3ccccc32)CC1 (stereo not drawn) [Compound 33]	–	48.7 ± 2.5 nM	700 ± 25 nM	16.6 ± 1.4 nM	5-HT7R affinity (in words) [2]: reasonably good 5-HT7R affinity
CSc1ccccc1N1CCN(CCCCCC(=O)NC2CCCc3ccccc32)CC1 (stereo not drawn) [Compound 44, 4-(2-Methylthiophenyl)-N-(1,2,3,4-tetrahydronaphthalen-1-yl)-1-piperazinehexanamide]	–	0.22 nM	326 ± 35 nM	52.7 ± 3.2 nM	5-HT7R affinity (in words) [2]: high affinity; selectivity over 5-HT2A receptors ([3]; 5-HT7R versus 5-HT2A): > 1000 fold; selectivity over 5-HT1A receptors ([4]; 5-HT7R versus 5-HT1A): 200 fold; EC50 [5]: 2560 nM; PA2 (vs SB-269970) [5]: 7.70 ± 0.80; 5-HT7 intrinsic activity (in words) [5]: Full agonists; Emax [5]: 100%; Schild plot [5]: 0.9 (p < 0.0001); circadian phase shift ([1]; microinjection into the dorsal raphe): cause phase shift advances
CC(=O)c1ccccc1N1CCN(CCCCCC(=O)NC2CCCc3ccccc32)CC1 (stereo not drawn) [Compound 34, 4-(2-Acetylphenyl)-N-(1,2,3,4-tetrahydronaphthalen-1-yl)-1-piperazinehexanamide]	–	4.14 ± 0.8 nM	12200 ± 350 nM	3.8 ± 0.1 nM	5-HT7R affinity (in words) [2]: reasonably good 5-HT7R affinity; also recorded: high affinity; EC50 [5]: 2460 ± 700 nM; PA2 (vs SB-269970) [5]: 7.60 ± 0.49; 5-HT7 intrinsic activity (in words) [5]: partial agonist; Emax [5]: 79%; Schild plot [5]: 1.3 (p < 0.0001)
COc1ccc2c(c1)C(NC(=O)CCCCN1CCN(c3ccccc3OC)CC1)CCC2 (stereo not drawn) (as salt: HCl) (hydrate or solvate) [Compound 21]	187 to 188 °C	–	–	–	–
COc1cc(Cl)ccc1N1CCN(CCCCCC(=O)NC2CCCc3ccccc32)CC1 (stereo not drawn) [Compound 35]	–	122 ± 14 nM	7170 ± 150 nM	332 ± 27 nM	–
COc1ccc2c(c1)C(NC(=O)CCCCCN1CCN(c3ccccc3OC)CC1)CCC2 (stereo not drawn) (as salt: HCl) [Compound 22]	175 to 178 °C	–	–	–	–
CS(=O)(=O)c1ccccc1N1CCN(CCCCCC(=O)NC2CCCc3ccccc32)CC1 (stereo not drawn) (as salt: HCl) (hydrate or solvate) [Compound 45]	120 to 122 °C	–	–	–	–
COc1ccccc1N1CCN(CCCC(=O)NC2CCCc3cccc(OC)c32)CC1 (stereo not drawn) (as salt: HCl) [Compound 23, N-(8-Methoxy-1,2,3,4-tetrahydronaphthalen-1-yl)4-(2-methoxyphenyl)-1-piperazinebutanamide]	131 to 133 °C	–	–	–	–
O=C(CCCCCN1CCN(c2ccccc2Cl)CC1)NC1CCCc2ccccc21 (stereo not drawn) [Compound 47]	–	40.1 ± 6.7 nM	301 ± 12 nM	96 ± 8 nM	–
CS(=O)(=O)c1ccccc1N1CCN(CCCCCC(=O)NC2CCCc3ccccc32)CC1 (stereo not drawn) [Compound 45]	–	298 ± 16 nM	–	3120 ± 260 nM	5-HT2A, percentage in parentheses after >4000 [6]: 38%
CC(=O)c1ccccc1N1CCN(CCCCCC(=O)NC2CCCc3ccccc32)CC1 (stereo not drawn) (as salt: HCl) (hydrate or solvate) [Compound 34, 4-(2-Acetylphenyl)-N-(1,2,3,4-tetrahydronaphthalen-1-yl)-1-piperazinehexanamide]	136 to 139 °C	–	–	–	–
COc1ccc(OC)c(N2CCN(CCCCCC(=O)NC3CCCc4ccccc43)CC2)c1 (stereo not drawn) [Compound 36]	–	70.3 ± 5.2 nM	259 ± 20 nM	911 ± 23 nM	–
O=C(CCCCCN1CCN(c2ccccc2)CC1)NC1CCCc2ccccc21 (stereo not drawn) [Compound 50]	–	65.6 ± 4.7 nM	77.8 ± 5.7 nM	128 ± 22 nM	–
COc1ccccc1N1CCN(CCCCCC(=O)NC2CCCc3ccccc32)CC1 (stereo not drawn) [Compound 28, 4-(2-Methoxyphenyl)-N-(1,2,3,4-tetrahydronaphthalen-1-yl)-1-piperazinehexanamide]	–	6.64 ± 0.6 nM	–	8.6 ± 0.35 nM	5-HT7R affinity (in words) [2]: high affinity; EC50 [5]: 6320 ± 200 nM; PA2 (vs SB-269970) [5]: 8.02 ± 1.40; 5-HT7 intrinsic activity (in words) [5]: Full agonists; Emax [5]: 91%; Schild plot [5]: 1.0 (p < 0.0001)
O=C(CCCCCN1CCN(c2ccccc2[N+](=O)[O-])CC1)NC1CCCc2ccccc21 (stereo not drawn) [Compound 48]	–	63.3 ± 7.5 nM	282 ± 35 nM	183 ± 15 nM	–
N#Cc1ccccc1N1CCN(CCCCCC(=O)NC2CCCc3ccccc32)CC1 (stereo not drawn) (as salt: HCl) (hydrate or solvate) [Compound 33]	175 to 178 °C	–	–	–	–
NC(=O)c1ccccc1N1CCN(CCCCCC(=O)NC2CCCc3ccccc32)CC1 (stereo not drawn) [Compound 43]	–	229 ± 12 nM	–	494 ± 35 nM	5-HT2A, percentage in parentheses after >4000 [6]: 9%
Cc1ccccc1N1CCN(CCCCCC(=O)NC2CCCc3ccccc32)CC1 (stereo not drawn) [Compound 49, 4-(2-Methylphenyl)-N-(1,2,3,4-tetrahydronaphthalen-1-yl)-1-piperazinehexanamide]	–	15.2 ± 3.2 nM	262 ± 24 nM	279 ± 44 nM	5-HT7R affinity (in words) [2]: high affinity; EC50 [5]: 1820 ± 720 nM; PA2 (vs SB-269970) [5]: 7.80 ± 0.40; 5-HT7 intrinsic activity (in words) [5]: Full agonists; Emax [5]: 98%; Schild plot [5]: 0.9 (p < 0.0001)
COc1cccc(N2CCN(CCCCCC(=O)NC3CCCc4ccccc43)CC2)c1 (stereo not drawn) [Compound 37]	–	119 ± 20 nM	142 ± 20 nM	105 ± 12 nM	–
COc1ccccc1N1CCN(CCCCC(=O)NC2CCCc3ccccc32)CC1 (stereo not drawn) (as salt: HCl) (hydrate or solvate) [Compound 27, 4-(2-Methoxyphenyl)-N-(1,2,3,4-tetrahydronaphthalen-1-yl)-1-piperazinepentanamide]	199 to 200 °C	–	–	–	–
N#Cc1cccc(N2CCN(CCCCCC(=O)NC3CCCc4ccccc43)CC2)c1 (stereo not drawn) [Compound 39]	–	97.8 ± 5.6 nM	909 ± 85 nM	291 ± 15 nM	–
CC(=O)c1cccc(N2CCN(CCCCCC(=O)NC3CCCc4ccccc43)CC2)c1 (stereo not drawn) [Compound 41]	–	496 ± 24 nM	1130 ± 200 nM	676 ± 32 nM	–
substance P: contracting agent of the guinea-pig ileum assay, purchased from Tocris Cookson (RPKPQQFFGLM; ends and bridges not checked; UniProt P20366 58-68, looked up)	–	–	–	–	contraction, % of maximum contraction [7]: 80%
O=C(CCCCCN1CCN(c2ccccc2O)CC1)NC1CCCc2ccccc21 (stereo not drawn) [Compound 46, 4-(2-Hydroxyphenyl)-N-(1,2,3,4-tetrahydronaphthalen-1-yl)-1-piperazinehexanamide]	–	11.4 ± 2.3 nM	3390 ± 225 nM	24 ± 6.3 nM	5-HT7R affinity (in words) [2]: high affinity; 5-HT7 intrinsic activity (in words) [5]: antagonist; Emax [5]: 0%; Schild plot [5]: 1.6 (p < 0.005)
CC(=O)c1ccc(N2CCN(CCCCCC(=O)NC3CCCc4ccccc43)CC2)cc1 (stereo not drawn) (as salt: HCl) [Compound 42]	112 to 114 °C	–	–	–	–
